Source: article PMC5218480 (PLoS ONE, 2017)

Tested on: MV-4-11 cells
Assay: Gene expression microarray analysis (Affymetrix PrimeView) and GSEA
Type: cell-based, human
Set-up: RFU PODN (11730768_x_at) / Fold change /veh PODN (11730768_x_at) / RFU LINC00158 (11744669_a_at) / Fold change /veh LINC00158 (11744669_a_at) / RFU DUSP10 (11751237_a_at) / Fold change /veh DUSP10 (11751237_a_at) / RFU ID3 (11757404_x_at) / Fold change /veh ID3 (11757404_x_at) / RFU PLEKHG5 (11737974_s_at) / Fold change /veh PLEKHG5 (11737974_s_at) / RFU LRRC4B (11730491_at) / Fold change /veh LRRC4B (11730491_at) / RFU GIMAP4 (11747438_a_at) / Fold change /veh GIMAP4 (11747438_a_at) / RFU KRT8 (11758183_x_at) / Fold change /veh KRT8 (11758183_x_at) / RFU CNN1 (11734310_a_at) / Fold change /veh CNN1 (11734310_a_at) / RFU VPS37D (11726825_at) / Fold change /veh VPS37D (11726825_at) / RFU C10orf10 (11716522_x_at) / Fold change /veh C10orf10 (11716522_x_at) / RFU KIR2DL2 /// KIR2DL4 /// KIR2DL5A /// KIR2DL5B /// KIR2DS1 /// KIR2DS2 /// KIR2DS3 /// KIR2DS4 /// KIR3DL3 /// KIR3DL3 /// KIR3DS1 (11738374_at) / Fold change /veh KIR2DL2 /// KIR2DL4 /// KIR2DL5A /// KIR2DL5B /// KIR2DS1 /// KIR2DS2 /// KIR2DS3 /// KIR2DS4 /// KIR3DL3 /// KIR3DL3 /// KIR3DS1 (11738374_at) / RFU C1QL1 (11718748_at) / Fold change /veh C1QL1 (11718748_at) / RFU TMPRSS4 (11747572_a_at) / Fold change /veh TMPRSS4 (11747572_a_at) / RFU HAMP (11756126_x_at) / Fold change /veh HAMP (11756126_x_at) / RFU RNFT2 (11725882_a_at) / Fold change /veh RNFT2 (11725882_a_at) / RFU NR4A2 (11747474_a_at) / Fold change /veh NR4A2 (11747474_a_at) / RFU ABCC12 (11746883_a_at) / Fold change /veh ABCC12 (11746883_a_at) / RFU TMEM136 (11760407_x_at) / Fold change /veh TMEM136 (11760407_x_at) / RFU CLDN22 /// WWC2 (11732394_at) / Fold change /veh CLDN22 /// WWC2 (11732394_at) / RFU HLA-DPB1 (11760878_x_at) / Fold change /veh HLA-DPB1 (11760878_x_at) / RFU SPINT1 (11716480_a_at) / Fold change /veh SPINT1 (11716480_a_at) / RFU GAP43 (11754022_s_at) / Fold change /veh GAP43 (11754022_s_at) / RFU A4GNT (11735810_at) / Fold change /veh A4GNT (11735810_at) / RFU PRB3 (11715151_x_at) / Fold change /veh PRB3 (11715151_x_at) / RFU TUBB4B (11761932_at) / Fold change /veh TUBB4B (11761932_at) / RFU CAPN14 (11732068_a_at) / Fold change /veh CAPN14 (11732068_a_at) / RFU TMCC2 (11721928_a_at) / Fold change /veh TMCC2 (11721928_a_at) / RFU IRGQ (11745062_a_at) / Fold change /veh IRGQ (11745062_a_at) / RFU FAM174B (11720279_a_at) / Fold change /veh FAM174B (11720279_a_at) / RFU TMPRSS4 (11748680_a_at) / Fold change /veh TMPRSS4 (11748680_a_at) / RFU FAM212B (11763350_a_at) / Fold change /veh FAM212B (11763350_a_at) / RFU PLEKHG5 (11743358_a_at) / Fold change /veh PLEKHG5 (11743358_a_at) / RFU ZSCAN30 (11745921_a_at) / Fold change /veh ZSCAN30 (11745921_a_at) / RFU CMKLR1 (11741424_a_at) / Fold change /veh CMKLR1 (11741424_a_at) / RFU LOC101060620 /// MAPK8IP1 (11723275_at) / Fold change /veh LOC101060620 /// MAPK8IP1 (11723275_at) / RFU SPTSSB (11747773_x_at) / Fold change /veh SPTSSB (11747773_x_at) / RFU PRSS12 (11739890_at) / Fold change /veh PRSS12 (11739890_at) / RFU BIN1 (11741810_x_at) / Fold change /veh BIN1 (11741810_x_at) / RFU WNT11 (11732464_a_at) / Fold change /veh WNT11 (11732464_a_at) / RFU C10orf10 (11716521_a_at) / Fold change /veh C10orf10 (11716521_a_at) / RFU C5orf56 (11738089_at) / Fold change /veh C5orf56 (11738089_at) / RFU CYB561 (11721691_x_at) / Fold change /veh CYB561 (11721691_x_at) / RFU ANKRD19P (11752326_a_at) / Fold change /veh ANKRD19P (11752326_a_at) / RFU OR2T12 /// OR2T33 /// OR2T8 (11738714_s_at) / Fold change /veh OR2T12 /// OR2T33 /// OR2T8 (11738714_s_at) / RFU VCAN (11748164_a_at) / Fold change /veh VCAN (11748164_a_at) / RFU JSRP1 (11732532_at) / Fold change /veh JSRP1 (11732532_at) / RFU KRTAP10-11 (11738290_x_at) / Fold change /veh KRTAP10-11 (11738290_x_at) / RFU MYO3A (11730013_a_at) / Fold change /veh MYO3A (11730013_a_at) / RFU EBF3 (11725865_a_at) / Fold change /veh EBF3 (11725865_a_at) / RFU CAMK2N1 (11719241_x_at) / Fold change /veh CAMK2N1 (11719241_x_at) / RFU C5orf56 (11738088_a_at) / Fold change /veh C5orf56 (11738088_a_at) / RFU OLFML3 (11715873_a_at) / Fold change /veh OLFML3 (11715873_a_at) / RFU LOC100653217 /// NTM (11731650_a_at) / Fold change /veh LOC100653217 /// NTM (11731650_a_at) / RFU MAPK11 (11762145_a_at) / Fold change /veh MAPK11 (11762145_a_at) / RFU FIZ1 (11724087_x_at) / Fold change /veh FIZ1 (11724087_x_at) / RFU OASL (11726364_x_at) / Fold change /veh OASL (11726364_x_at) / RFU SOX15 (11748057_x_at) / Fold change /veh SOX15 (11748057_x_at) / RFU CD79A (11719716_a_at) / Fold change /veh CD79A (11719716_a_at) / RFU HIST1H1D (11736915_at) / Fold change /veh HIST1H1D (11736915_at) / RFU CASKIN2 (11723855_a_at) / Fold change /veh CASKIN2 (11723855_a_at) / RFU LOC730098 (11760151_x_at) / Fold change /veh LOC730098 (11760151_x_at) / RFU OR4N2 (11742367_at) / Fold change /veh OR4N2 (11742367_at) / RFU PRRT2 (11749266_a_at) / Fold change /veh PRRT2 (11749266_a_at) / RFU SNX32 (11753110_a_at) / Fold change /veh SNX32 (11753110_a_at) / RFU CDHR5 (11726645_a_at) / Fold change /veh CDHR5 (11726645_a_at) / RFU RCAN1 (11760418_a_at) / Fold change /veh RCAN1 (11760418_a_at) / RFU FAM167A (11723789_a_at) / Fold change /veh FAM167A (11723789_a_at) / RFU FAM26E (11764081_at) / Fold change /veh FAM26E (11764081_at) / RFU ISYNA1 (11749810_s_at) / Fold change /veh ISYNA1 (11749810_s_at) / RFU ACY1 (11761880_at) / Fold change /veh ACY1 (11761880_at) / RFU 11764098_at / Fold change /veh 11764098_at / RFU SAMD14 (11745864_x_at) / Fold change /veh SAMD14 (11745864_x_at) / RFU NPB (11741838_a_at) / Fold change /veh NPB (11741838_a_at) / RFU TMPRSS6 (11731388_a_at) / Fold change /veh TMPRSS6 (11731388_a_at) / RFU KRTAP10-2 (11738614_at) / Fold change /veh KRTAP10-2 (11738614_at) / RFU ARHGAP8 /// PRR5-ARHGAP8 (11727945_x_at) / Fold change /veh ARHGAP8 /// PRR5-ARHGAP8 (11727945_x_at) / RFU KRTAP5-7 /// NADSYN1 (11734609_at) / Fold change /veh KRTAP5-7 /// NADSYN1 (11734609_at) / RFU RASL12 (11751679_a_at) / Fold change /veh RASL12 (11751679_a_at) / RFU CDKN2B (11736163_a_at) / Fold change /veh CDKN2B (11736163_a_at) / RFU PRF1 (11729649_at) / Fold change /veh PRF1 (11729649_at) / RFU, ZNF638 /// ZNF638-IT1 / Fold change vs veh, ZNF638 /// ZNF638-IT1 / RFU, PANK3 / Fold change vs veh, PANK3 / RFU, SH3YL1 / Fold change vs veh, SH3YL1 / RFU, ZEB2 / Fold change vs veh, ZEB2 / RFU, NRIP1 / Fold change vs veh, NRIP1 / RFU, PTTG1IP / Fold change vs veh, PTTG1IP / RFU, CAPN2 / Fold change vs veh, CAPN2 / RFU, MED14 / Fold change vs veh, MED14 / RFU, SNORA58 / Fold change vs veh, SNORA58 / RFU, C1orf63 / Fold change vs veh, C1orf63 / RFU, LRRFIP1 / Fold change vs veh, LRRFIP1 / RFU, NDUFAF7 / Fold change vs veh, NDUFAF7 / RFU, SLC12A2 / Fold change vs veh, SLC12A2 / RFU, IBTK / Fold change vs veh, IBTK / RFU, ESF1 / Fold change vs veh, ESF1 / Fold change vs veh, TMEM50B / RFU, TAOK1 / Fold change vs veh, TAOK1 / RFU, ACBD3 / Fold change vs veh, ACBD3 / RFU, TMA16 / Fold change vs veh, TMA16 / RFU, RWDD3 / Fold change vs veh, RWDD3 / RFU, BCAT1 / Fold change vs veh, BCAT1 / RFU, EDEM3 / Fold change vs veh, EDEM3 / RFU, TMEM33 / Fold change vs veh, TMEM33 / RFU, WDR75 / Fold change vs veh, WDR75 / RFU, AHCTF1 / Fold change vs veh, AHCTF1 / RFU, TFRC / Fold change vs veh, TFRC / RFU, ZDHHC17 / Fold change vs veh, ZDHHC17 / RFU, NOM1 / Fold change vs veh, NOM1 / RFU, ARL8B / Fold change vs veh, ARL8B / RFU, ZBTB11 / Fold change vs veh, ZBTB11 / RFU, TAMM41 / Fold change vs veh, TAMM41 / RFU, KIAA1704 /// LOC100996395 / Fold change vs veh, KIAA1704 /// LOC100996395 / RFU, ING1 / Fold change vs veh, ING1 / RFU, TRMT61B / Fold change vs veh, TRMT61B / RFU, FUBP3 / Fold change vs veh, FUBP3 / RFU, TP53 / Fold change vs veh, TP53 / RFU, TNKS2 / Fold change vs veh, TNKS2 / RFU, ZFP14 / Fold change vs veh, ZFP14 / RFU, ACTR2 / Fold change vs veh, ACTR2 / RFU, PPP3R1 / Fold change vs veh, PPP3R1 / RFU, PIK3R1 / Fold change vs veh, PIK3R1 / RFU, HNRNPA1 / Fold change vs veh, HNRNPA1 / RFU, RNF170 / Fold change vs veh, RNF170 / RFU, ZNF28 / Fold change vs veh, ZNF28 / RFU, RNGTT / Fold change vs veh, RNGTT / RFU, OGT / Fold change vs veh, OGT / RFU, BRD1 / Fold change vs veh, BRD1 / RFU, MARS / Fold change vs veh, MARS / RFU, ZNF655 / Fold change vs veh, ZNF655 / RFU, FAHD1 / Fold change vs veh, FAHD1 / RFU, BDP1 / Fold change vs veh, BDP1 / RFU, LRRCC1 / Fold change vs veh, LRRCC1 / RFU, ARID1A / Fold change vs veh, ARID1A / RFU, ZNF146 / Fold change vs veh, ZNF146 / RFU, ZNF330 / Fold change vs veh, ZNF330 / RFU, GPN3 / Fold change vs veh, GPN3 / RFU, C9orf123 / Fold change vs veh, C9orf123 / RFU, N4BP2L2 / Fold change vs veh, N4BP2L2 / RFU, ARFIP1 / Fold change vs veh, ARFIP1 / RFU, FAM179B / Fold change vs veh, FAM179B / RFU, BCL10 / Fold change vs veh, BCL10 / RFU, UHRF1BP1L / Fold change vs veh, UHRF1BP1L / RFU, BET1 / Fold change vs veh, BET1 / RFU, CNOT2 / Fold change vs veh, CNOT2 / RFU, ZNF268 / Fold change vs veh, ZNF268 / Fold change vs veh, ZNF507 / RFU, DGCR2 / Fold change vs veh, DGCR2 / RFU, WDSUB1 / Fold change vs veh, WDSUB1 / Fold change vs veh, HSP90B1 /// MIR3652 / RFU, ADSS / Fold change vs veh, ADSS / RFU, GK / Fold change vs veh, GK / RFU, ZNF148 / Fold change vs veh, ZNF148 / RFU, TAF9 / Fold change vs veh, TAF9 / RFU, SLC1A5 / Fold change vs veh, SLC1A5 / RFU, SLMO2 / Fold change vs veh, SLMO2 / RFU, ABCC4 / Fold change vs veh, ABCC4 / RFU, LOC101060439 /// RAP1B / Fold change vs veh, LOC101060439 /// RAP1B / RFU, RFX7 / Fold change vs veh, RFX7 / RFU, GTPBP10 / Fold change vs veh, GTPBP10 / RFU, CNEP1R1 / Fold change vs veh, CNEP1R1 / RFU, BIVM-ERCC5 /// ERCC5 / Fold change vs veh, BIVM-ERCC5 /// ERCC5 / RFU, ILF3 / Fold change vs veh, ILF3 / RFU 11762660_at / Fold change /veh 11762660_at / RFU VCAN (11757783_s_at) / Fold change /veh VCAN (11757783_s_at) / RFU DDX43 (11728927_at) / Fold change /veh DDX43 (11728927_at) / RFU KRT8 (11758188_x_at) / Fold change /veh KRT8 (11758188_x_at) / RFU NKD1 (11759106_at) / Fold change /veh NKD1 (11759106_at) / RFU SRD5A1 (11742802_a_at) / Fold change /veh SRD5A1 (11742802_a_at) / RFU TPSAB1 /// TPSB2 (11721975_s_at) / Fold change /veh TPSAB1 /// TPSB2 (11721975_s_at) / RFU GSTM3 (11746129_a_at) / Fold change /veh GSTM3 (11746129_a_at) / RFU IL23R (11737362_x_at) / Fold change /veh IL23R (11737362_x_at) / RFU TMEM51 (11727254_a_at) / Fold change /veh TMEM51 (11727254_a_at) / RFU PIWIL2 (11732686_x_at) / Fold change /veh PIWIL2 (11732686_x_at) / RFU ORM1 (11744905_x_at) / Fold change /veh ORM1 (11744905_x_at) / RFU CCDC152 (11743942_at) / Fold change /veh CCDC152 (11743942_at) / RFU ECM1 (11717891_a_at) / Fold change /veh ECM1 (11717891_a_at) / RFU IL23R (11748794_a_at) / Fold change /veh IL23R (11748794_a_at) / RFU TNFAIP8L3 (11732012_x_at) / Fold change /veh TNFAIP8L3 (11732012_x_at) / RFU MBOAT4 (11741988_at) / Fold change /veh MBOAT4 (11741988_at) / RFU 11764193_at / Fold change /veh 11764193_at / RFU TMEM53 (11763286_at) / Fold change /veh TMEM53 (11763286_at) / RFU MAGEB2 (11727129_at) / Fold change /veh MAGEB2 (11727129_at) / RFU TMEM200A (11744735_a_at) / Fold change /veh TMEM200A (11744735_a_at) / RFU CCDC152 (11751479_a_at) / Fold change /veh CCDC152 (11751479_a_at) / RFU FAM211A (11726209_a_at) / Fold change /veh FAM211A (11726209_a_at) / RFU RGS16 (11746705_a_at) / Fold change /veh RGS16 (11746705_a_at) / RFU VCAN (11755009_s_at) / Fold change /veh VCAN (11755009_s_at) / RFU RHOB (11743442_s_at) / Fold change /veh RHOB (11743442_s_at) / RFU RGS16 (11720943_a_at) / Fold change /veh RGS16 (11720943_a_at) / RFU RGS16 (11720944_at) / Fold change /veh RGS16 (11720944_at) / RFU, VPS4B / Fold change vs veh, VPS4B / RFU, CREB1 / Fold change vs veh, CREB1 / RFU, DNAJC13 / Fold change vs veh, DNAJC13 / RFU, GNAQ / Fold change vs veh, GNAQ / RFU, CDK5R1 / Fold change vs veh, CDK5R1 / RFU, ZRANB3 / Fold change vs veh, ZRANB3 / RFU, CUL4A / Fold change vs veh, CUL4A / RFU, CCNY / Fold change vs veh, CCNY / RFU, UFL1 / Fold change vs veh, UFL1 / RFU, COG3 / Fold change vs veh, COG3 / RFU, DIAPH2 / Fold change vs veh, DIAPH2 / RFU, SKA2 / Fold change vs veh, SKA2 / RFU, AFF3 / Fold change vs veh, AFF3 / RFU, LMF1 / Fold change vs veh, LMF1 / RFU, IPO11 / Fold change vs veh, IPO11 / RFU, DFFB / Fold change vs veh, DFFB / RFU, FOXP1 / Fold change vs veh, FOXP1 / RFU, CARD8 / Fold change vs veh, CARD8 / RFU, STRN3 / Fold change vs veh, STRN3 / RFU, ADK / Fold change vs veh, ADK / RFU, RASSF2 / Fold change vs veh, RASSF2 / RFU, WIPF1 / Fold change vs veh, WIPF1 / RFU, LARP1B / Fold change vs veh, LARP1B / RFU, RASA1 / Fold change vs veh, RASA1 / RFU, RB1 / Fold change vs veh, RB1 / RFU, PPFIA1 / Fold change vs veh, PPFIA1 / RFU, MAT2A / Fold change vs veh, MAT2A / RFU, CCT5 / Fold change vs veh, CCT5 / RFU, WDR92 / Fold change vs veh, WDR92 / RFU, CUX1 / Fold change vs veh, CUX1 / RFU, TTC7A / Fold change vs veh, TTC7A / RFU, TMEM135 / Fold change vs veh, TMEM135 / RFU, DEPTOR / Fold change vs veh, DEPTOR / RFU, CPM / Fold change vs veh, CPM / RFU, DNAJB6 / Fold change vs veh, DNAJB6 / RFU, CACNA2D3 / Fold change vs veh, CACNA2D3 / RFU, DTX4 / Fold change vs veh, DTX4 / RFU, TFCP2 / Fold change vs veh, TFCP2 / RFU, GMCL1 /// GMCL1P1 / Fold change vs veh, GMCL1 /// GMCL1P1 / RFU, AEBP2 / Fold change vs veh, AEBP2 / RFU, SNHG1 /// SNORD22 /// SNORD25 /// SNORD26 /// SNORD27 /// SNORD28 /// SNORD29 /// SNORD31 / Fold change vs veh, SNHG1 /// SNORD22 /// SNORD25 /// SNORD26 /// SNORD27 /// SNORD28 /// SNORD29 /// SNORD31 / Fold change (Aza/veh), C12orf56 (ProbeSet 11735607_a_at) / Fold change (ACY-1035/veh), C12orf56 (ProbeSet 11735607_a_at) / Fold change (Aza/veh), FGFR1OP (ProbeSet 11751329_s_at) / Fold change (ACY-1035/veh), FGFR1OP (ProbeSet 11751329_s_at) / Fold change (Aza/veh), VPS36 (ProbeSet 11739960_a_at) / Fold change (ACY-1035/veh), VPS36 (ProbeSet 11739960_a_at) / RFU SYPL1 (11715823_x_at) / Fold change /veh SYPL1 (11715823_x_at) / RFU IGFBP7 (11715501_s_at) / Fold change /veh IGFBP7 (11715501_s_at) / RFU REEP3 (11722064_at) / Fold change /veh REEP3 (11722064_at) / RFU IGLL1 (11728026_x_at) / Fold change /veh IGLL1 (11728026_x_at): dose or concentration left out as unconfirmed
Conditions: MV-4-11 cells, 48 hours

Nc1ccc(-c2cccs2)cc1NC(=O)c1ccc2c(c1)cc(C1CC1)n2CCN1CCOCC1 [ACY-1035]
RFU SYPL1 (11715823_x_at): 565.47 RFU
